Assay [1] has as its system vascular endothelial function. The conditions noted are these: Type 1 and Type 2 diabetes in humans; cited from earlier work.
The subject of assay [2] is pancreatitis and vascular injury. The conditions noted are these: L-arginine induced pancreatic inflammation in rats; cited from earlier work.
In assay [3] the test system is IL-1 and IFN-γ insufflated rats. Nature of the assay: Lung histology (H&E) after cytokine insufflation. The following applies: diet before IL-1 and IFN-γ insufflation, 24 hours later (FIG. 4d).
The next assay has as its system sarcoidosis. The following applies: cited from earlier work.
Another assay relates to alveolar cells. The experiment in a line: TUNEL staining and morphometric analysis. The conditions noted are these: prior feeding with diet, IL-1 and IFN-γ insufflation 24 h before (FIG. 4f,g). The format is in vivo, rat. Here is the method: TUNEL staining and morphometric analysis. The TUNEL assay was used to detect apoptotic cells in fixed lung sections. After fixation with 4% buffered formalin, lung tissue sections were embedded in paraffin, sectioned at […], and mounted on glass slides. Slides were de-paraffinized, rehydrated for 10 min in PBS, and treated with 0.002% proteinase K (Sigma) in distilled water for 5 to 15 min at room temperature. Terminal deoxynucleotidyl transferase (TdT) was used for labeling of DNA nicks using the TACS kit (Trevigen, Inc., Gaithersburg, Md.). Counterstaining with DAPI was done to stain nuclear DNA and with Rhodamine coupled wheat germ agglutinin (WGA, Molecular Probes, Eugene, Oreg.) to stain the structural architecture. TUNEL positive cell staining appeared as green fluorescence in the nuclei of clearly defined alveolar cells. Background nuclear staining appeared as blue while the tissue architecture was red.

The subject of assay [4] is endothelial injury in the lungs (and gut). The following applies: heavy smokers and rats subjected to heavy smoking conditions; cited from earlier work.
In assay [5] the test system is IL-1 and IFN-γ insufflated rats. Nature of the assay: Differential and total inflammatory cell counts in BALF after cytokine insufflation. The format is in vivo, rat. The conditions noted are these: diet before IL-1 and IFN-γ insufflation, 24 hours later; allopurinol 50 mg/Kg for seven days (FIG. 4c). From the text: Intratracheal cytokine insufflation.
The next assay deals with vascular injury. The conditions noted are these: mice, hemorrhagic shock or LPS injection, prior inhibition of XOR; cited from earlier work.
In the next assay the test system is superoxide generation. The conditions noted are these: streptozotocin induced diabetes in mice; cited from earlier work.
Another assay relates to caspase-3. The experiment in a line: Activated caspase-3 detection in lung sections. It is filed as in vivo, rat. The following applies: prior feeding with diet, IL-1 and IFN-γ insufflation 24 hours before (FIG. 4h). Here is the method:
Activated caspase-3 detection. Detection of the cleaved, mature, activated caspase-3 was performed on paraffin-embedded sections using the Cell Signaling Technology, Inc (Beverly, Mass.) protocol. First, paraffin-embedded slides were deparaffinized and rehydrated. Incubation with 1% H2O2 for 10 min blocked endogenous peroxidase activity. For antigen unmasking, the tissue sections were microwaved in 10 mM sodium citrate buffer (pH 6.0) for 10 min. Next, the sections were blocked in 5% goat serum for 1 hr at room temperature. Slides were then incubated at 4° C. overnight with caspase-3 antibody specific for the cleaved, mature, form of caspase-3 diluted 1:200 in phosphate buffered saline (Asp-175; Cell Signaling Technology, Inc). This was followed by a 30 min incubation with a 1:200 dilution of goat anti-rabbit antibody (PK-6101; Vector Laboratories, Burlingame, Calif.). A subsequent 30 min incubation with VectaStain Elite ABC reagent (PK-6101; Vector Laboratories) ensued. This reaction was followed by the addition of the DAB substrate kit for peroxidase (SK-4100; Vector Labs). The slides were finally counterstained with hematoxylin (H-3401; Vector Labs), dehydrated and mounted. Caspase-3 positive cells were quantitated by counting the percent positive alveolar cells per field under 100× magnification.

A further assay concerns NADPH oxidase. The conditions noted are these: even at relatively high doses; cited from earlier work.
For assay [6], the system named is acute gastric mucosal lesions. The following applies: rats; cited from earlier work.
The next assay deals with T1, XOR (Homo sapiens, UniProt P47989).
T1 construct: host or cells: bronchoalveolar lavage fluid of COPD patients
The conditions noted are these: COPD; cited from earlier work.

Assay [7] deals with patients with chronic heart failure (CHF), cardiomyopathy, or undergoing heart surgery. The conditions noted are these: cited from earlier work.
The test system of assay [8] is colonic leukocyte-chemokine expression and leukocyte accumulation. The conditions noted are these: mice; cited from earlier work.
The next assay has as its system Id-2. The experiment in a line: Western immunoblot of Id-2 from BALF cells. The conditions noted are these: 24 hours following cytokine insufflation, allopurinol vs control fed rats. It is filed as in vivo, rat. Here is the method:
Western immunoblot analysis of the differential inhibitor, Id-2, from BALF cells obtained 24 hours following cytokine insufflation in allopurinol (A) or control (C) fed rats.
For orientation: A western blot detects proteins with antibodies after separation by electrophoresis.

For the next assay, the system named is pancreatic fibrosis. The following applies: rats treated with diethyldithiocarbamate; cited from earlier work.
A further assay deals with T2, MNP XOR (Rattus norvegicus, UniProt P22985).
T2 construct: endogenous in cells; host or cells: BALF cells / adherent mononuclear phagocytes from IL-1 and IFN-gamma insufflated Sprague-Dawley rats
Nature of the assay: Cell transfer experiment: BALF cells treated in vitro and insufflated into control rats. The following applies: BALF cells exposed 15 min to 150 μM allopurinol in vitro, 2×10^6 cells insufflated into control rats, BALF 24 hours later, p<0.05 vs control cells (FIG. 5c). It is filed as in vivo.

Assay [9] relates to PMN accumulation in the eye. The conditions noted are these: uveitis, even after the onset of disease; cited from earlier work.
Assay [10] relates to leukocyte-chemokine expression and leukocyte accumulation. The following applies: endotoxemic model of liver injury; cited from earlier work.

T2 sequence (P22985 whole entry): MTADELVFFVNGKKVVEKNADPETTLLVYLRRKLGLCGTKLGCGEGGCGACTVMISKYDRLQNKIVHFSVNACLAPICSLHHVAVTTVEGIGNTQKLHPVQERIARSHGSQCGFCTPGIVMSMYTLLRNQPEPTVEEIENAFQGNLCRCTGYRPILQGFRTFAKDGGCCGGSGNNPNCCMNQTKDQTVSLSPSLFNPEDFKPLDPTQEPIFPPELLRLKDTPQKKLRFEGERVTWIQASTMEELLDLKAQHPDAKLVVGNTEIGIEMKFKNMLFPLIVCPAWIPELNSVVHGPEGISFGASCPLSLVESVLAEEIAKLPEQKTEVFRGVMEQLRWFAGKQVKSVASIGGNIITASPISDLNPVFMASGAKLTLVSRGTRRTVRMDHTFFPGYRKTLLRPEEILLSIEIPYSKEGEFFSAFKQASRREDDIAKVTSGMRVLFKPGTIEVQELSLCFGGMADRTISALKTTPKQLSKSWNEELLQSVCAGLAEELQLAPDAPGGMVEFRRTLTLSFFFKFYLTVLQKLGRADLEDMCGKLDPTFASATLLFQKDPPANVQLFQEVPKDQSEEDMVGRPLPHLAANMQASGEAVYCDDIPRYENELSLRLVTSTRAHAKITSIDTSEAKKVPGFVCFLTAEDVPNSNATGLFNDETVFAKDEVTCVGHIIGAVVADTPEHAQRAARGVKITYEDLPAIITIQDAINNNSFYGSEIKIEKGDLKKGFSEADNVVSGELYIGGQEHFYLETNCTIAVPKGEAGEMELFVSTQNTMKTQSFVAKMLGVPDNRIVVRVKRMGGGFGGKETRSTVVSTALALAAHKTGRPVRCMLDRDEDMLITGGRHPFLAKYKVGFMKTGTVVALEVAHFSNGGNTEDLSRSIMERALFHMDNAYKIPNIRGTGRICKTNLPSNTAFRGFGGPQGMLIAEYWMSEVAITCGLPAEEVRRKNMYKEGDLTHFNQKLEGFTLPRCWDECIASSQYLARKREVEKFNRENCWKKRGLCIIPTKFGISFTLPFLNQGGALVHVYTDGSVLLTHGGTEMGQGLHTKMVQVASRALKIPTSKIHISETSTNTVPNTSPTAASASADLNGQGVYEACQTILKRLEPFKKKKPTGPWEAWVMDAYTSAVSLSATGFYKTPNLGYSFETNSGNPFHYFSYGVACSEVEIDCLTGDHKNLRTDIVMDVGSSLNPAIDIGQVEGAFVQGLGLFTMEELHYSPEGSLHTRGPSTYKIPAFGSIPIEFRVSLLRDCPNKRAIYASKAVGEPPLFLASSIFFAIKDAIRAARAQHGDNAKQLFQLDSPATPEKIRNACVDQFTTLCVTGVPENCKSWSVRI
T1 sequence (P47989 whole entry): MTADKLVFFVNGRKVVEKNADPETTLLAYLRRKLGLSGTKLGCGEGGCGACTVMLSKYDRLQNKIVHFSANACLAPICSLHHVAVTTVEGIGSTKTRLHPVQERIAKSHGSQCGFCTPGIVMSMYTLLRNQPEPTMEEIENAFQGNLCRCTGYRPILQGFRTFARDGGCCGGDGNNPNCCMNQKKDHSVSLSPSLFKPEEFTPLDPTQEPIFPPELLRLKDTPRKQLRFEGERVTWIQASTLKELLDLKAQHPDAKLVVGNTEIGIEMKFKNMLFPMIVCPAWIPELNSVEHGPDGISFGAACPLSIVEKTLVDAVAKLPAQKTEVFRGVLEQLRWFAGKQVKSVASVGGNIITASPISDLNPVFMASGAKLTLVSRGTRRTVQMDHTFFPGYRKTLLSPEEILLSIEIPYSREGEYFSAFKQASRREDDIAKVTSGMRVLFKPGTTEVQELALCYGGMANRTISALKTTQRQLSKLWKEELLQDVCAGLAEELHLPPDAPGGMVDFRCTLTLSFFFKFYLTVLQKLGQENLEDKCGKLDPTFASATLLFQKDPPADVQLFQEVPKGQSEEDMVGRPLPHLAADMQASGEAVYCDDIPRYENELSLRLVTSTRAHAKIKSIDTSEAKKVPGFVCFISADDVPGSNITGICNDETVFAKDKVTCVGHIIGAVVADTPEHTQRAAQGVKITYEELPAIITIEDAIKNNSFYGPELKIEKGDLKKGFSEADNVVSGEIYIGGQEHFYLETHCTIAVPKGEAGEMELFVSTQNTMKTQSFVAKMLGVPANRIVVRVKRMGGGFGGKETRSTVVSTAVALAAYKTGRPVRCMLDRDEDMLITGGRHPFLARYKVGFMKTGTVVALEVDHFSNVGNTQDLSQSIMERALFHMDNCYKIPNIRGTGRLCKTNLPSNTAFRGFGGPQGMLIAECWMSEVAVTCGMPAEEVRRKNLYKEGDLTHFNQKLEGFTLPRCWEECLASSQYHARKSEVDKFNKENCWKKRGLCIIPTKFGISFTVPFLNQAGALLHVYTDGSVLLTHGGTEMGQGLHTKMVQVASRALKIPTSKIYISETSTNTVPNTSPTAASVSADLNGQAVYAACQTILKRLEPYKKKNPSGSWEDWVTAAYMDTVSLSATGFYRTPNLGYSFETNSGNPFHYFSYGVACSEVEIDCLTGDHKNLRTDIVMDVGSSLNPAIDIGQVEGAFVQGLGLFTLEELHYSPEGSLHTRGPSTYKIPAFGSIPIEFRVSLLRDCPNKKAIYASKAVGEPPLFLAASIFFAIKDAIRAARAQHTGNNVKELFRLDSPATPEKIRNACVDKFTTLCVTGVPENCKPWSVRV
Method for MNP XOR: A lung inflammatory response was induced in rats with IL-1 and IFN-γ insufflation. After 8 hours, cells from BALF were recovered from each rat in PBS, pooled, and quantitated. Cells were then divided into two equivalent fractions and exposed to 1 mM KOH or 1 mM KOH with 150 μM allopurinol in vitro. The neutral pH of the PBS and cell mixture was unchanged by adding 1 mM KOH. After 15 min, the cells were washed and resuspended in PBS. Subsequently, 2×10^6 of control or allopurinol treated cells were insufflated into control rats. 24 hours after cell insufflation, BALF cells were recovered from these rats, Wright's stained and quantitated. […] Data are the mean and standard error of 6 rats in each group.
To determine whether XOR induction in MNP could contribute to lung inflammation, we performed a cell transfer experiment. We induced a pulmonary inflammatory response in rats with IL-1 and IFN-γ insufflation, obtained these cells by bronchoalveolar lavage 8 hours later, and then treated these cells with either allopurinol or the vehicle for allopurinol in vitro. After a 15 min exposure to allopurinol or the vehicle, the cells were washed, resuspended in PBS, and then insufflated into control rats. Subsequently, cells were harvested from the BALF of these control rats, stained, and quantitated.

As to `Oc1ncnc2[nH]ncc12` [allopurinol], in assay [1], the vascular endothelial function entry was “protective”. For the same molecule, the “evidence of pancreatitis and vascular injury” value in assay [2] is “blocked”. In addition, the “histologic evidence of airway and perivascular inflammation” value in assay [3] was “attenuated”. In addition, the “pulmonary sarcoidosis attributed to BCG vaccination” value in the assay on sarcoidosis (human) is reported as “completely regressed”. The sarcoidosis outcome in the assay with sarcoidosis (patients with sarcoidosis) is “induce remission”. In addition, in the assay with alveolar cells, the “development of alveolar apoptosis (TUNEL positive alveolar nuclei)” value is recorded as “attenuated”. Also, the “endothelial injury in the lungs (and gut)” value in assay [4] is reported as “reduce”. The “accumulation of inflammatory cells (BALF cell numbers)” value in [5] is “reduced”. Further, the “evidence of vascular injury” value in the assay with vascular injury is reported as “dramatically attenuated”. The superoxide generation result in the assay with superoxide generation is listed as “normalized”. Besides, in the assay on caspase-3, the “activation of caspase-3 in cytokine insufflated rat lungs” value was “blocked”. Moreover, the “scavenging of ROS generated from the NADPH oxidase” value with NADPH oxidase was “fails to scavenge”. In assay [6], the “markers of leukocyte infiltration in the gut” value was “decreased” and the “progression of experimentally induced acute gastric mucosal lesions” value is given as “blocked”. In addition, the “XOR and evidence of XOR derived oxidative stress” value on XOR is “reduced”. Also, the “effect in patients with chronic heart failure, cardiomyopathy, or undergoing heart surgery” value in [7] was “cardio-protective effect”. Moreover, the “I/R induced colonic leukocyte-chemokine expression and leukocyte accumulation” value in assay [8] is recorded as “markedly reduced”. Also, the “Id-2 from BALF cells (Western immunoblot)” value with Id-2 is “XOR dependent regulations of MNP Id-2 levels”. Moreover, the pancreatic fibrosis result with pancreatic fibrosis is given as “blocked”. The “recovery of neutrophils in the BALF after insufflation of treated BALF cells” value at MNP XOR is listed as “attenuated”. In addition, the “capacity to reduce PMN accumulation in the eye” value in [9] is “as effective as steroid treatment”. In addition, the “leukocyte-chemokine expression and leukocyte accumulation” value in assay [10] was “blocked”.

The values are drawn from US20070224287A1, “Methods of Modulating Inflammatory Reactions by Modulating Xanthine Oxidoreductase Activity” (priority 2003, published 2007).
